Assay [1] addresses T1, heat shock 70 kDa protein (HSP70) (Homo sapiens, UniProt P0DMV8).
T1 construct: purchased Sino Biological 11660-H07H
The assay is described as follows: nDEL affinity selection against HSP70 (enrichment fold by deep sequencing). It is filed as binding. Conditions: ratio of normalized sequencing counts in presence and absence of target protein; DNA-encoded compound. As to the method: (§1) The panning procedure for these two soluble protein were the same. 5 μg of target protein was mixed with Ni-charged MagBeads (GenScript, Cat. #L00295), 5 nM DEL library and 10 μg/mL Salmon sperm DNA. The final volume to adjusted to 100 μL. The mixture was rotated at room temperature for 1.5 h. After washing 5 times by phosphate-buffered saline supplemented 0.05% Tween-20 (PBST), the target protein binding chemical-DNA conjugations were eluted by heating at 95° C. for 10 min in 50 μL elution buffer (20 mM Tris, pH 7.4, 100 mM NaCl). The eluted DEL compounds were amplified by PCR using Takara PrimerSTAR Max DNA Polymerase (Takara, Cat. #R045A). Then the excess primers was removed by Hieff NGS™ smarter DNA clean beads (Yeasen, Cat. #12600E503) and evaluated on 4% DNA agarose gel. The amplified products was subjected for high-throughput sequencing using Illumina HiSeq X10 Analyzer.
The combinatorial chemical library was constructed by three building block sub libraries, containing 6, 46 and 46 chemical building blocks respectively for the first, second and third building block libraries, respectively. Each building block was encoded by a 10-base pair (bp) DNA sequence. The natural products were encoded by a 30-bp DNA sequence, same length as the combinatorial chemical library DNA codes. […] After sequencing, the Illumina adaptors around the DNA coding sequences were trimmed by CLC genomics workbench version 12 (Qiagen). The left DNA coding sequences were 30 bp in length corresponding to the three DNA sequences of building blocks in 3 rounds of “split-pool” iterations. For each sample, the DNA coding sequences were mapped to the reference DNA encoding compound library. No mismatch was allowed in the mapping. The coding sequences were counted for all the compounds across different samples. The total read-counts of all the compounds in a given sample were calculated. The read-counts for each individual compound were divided by the total counts, multiplied with a constant of 100000.
(§2) NormalizedCountCompoundM,SampleA=CountCompoundM,SampleA/(TotalCountSampleA)*100000
The fold changes of each compound in the after-selection library comparing to the reference library were calculated.
(§3) FoldChangeCompoundM=NormalizedCountCompoundM,SampleA/NormalizedCountCompoundM,Ref
(§4) The hit criteria of nDEL screening take into account of both the normalized enrichment fold values (y-axis) and deep sequencing read counts (x-axis). Compounds with read counts less than 10 are considered unreliable, thus they are eliminated immediately from DEL before on-target screening. For each DEL library, a baseline enrichment fold is recorded in the absence of target protein, and a normalized enrichment fold value can be calculated for each DEL compound in the library. The cutoff for hits identification is based on a simplified statistical analysis of a highly diverse population of data, which is the sum of average value of enrichment-folds of the whole library (μ) plus 3 times of the standard deviation (σ).
Two target proteins with different cellular locations and biophysical properties were used in nDEL screens. […] The known functional binders for these targets were included in nDEL as internal positive controls, e.g., oridonin for HSP70 and derivatives of olaparib (F001, F002, F003 and F006) for PARP-1. To account for the non-uniform distribution of DNA barcodes in nDEL, a blank screen of nDEL in the absence of target proteins but presence of immobilization matrix beads was carried out first and followed by deep-sequencing to establish the baseline distribution of barcodes in the library. All screening data were analyzed using the method described by Decurtins et al., Nat Protoc. […] The corresponding DNA sequence of each nDEL compound were tallied based on its sequencing counts. The enrichment fold is calculated as the ratio of normalized sequencing counts in the presence and absence of target protein.

In assay [2] the target is T2, poly [ADP-ribose] polymerase 1 (PARP1) (Homo sapiens, UniProt P09874).
T2 construct: purchased Sino Biological 11040-H08B
Kind of assay: nDEL affinity selection against PARP-1 (enrichment fold by deep sequencing). The assay is classed as binding. To be noted: for Fold Change, enrichment folds for PARP-1 binder selection: ratio of normalized sequencing counts in presence and absence of target protein, DNA-encoded compound. As to the method:
as §1, with “The his-tag fused recombinant human PARP-1 (Sino Biological, Cat. #11040-H08B) and human-HSP70 (Sino Biological, Cat. #11660-H07H) were obtained from commercial source. The panning” for “The panning”
The combinatorial chemical library was constructed by three building block sub libraries, containing 6, 46 and 46 chemical building blocks respectively for the first, second and third building block libraries, respectively. Each building block was encoded by a 10-base pair (bp) DNA sequence. The natural products were encoded by a 30-bp DNA sequence, same length as the combinatorial chemical library DNA codes. All the possible combinations (combinatorial chemical compounds) between these three sub libraries were generated by an inhouse java program, which generated a reference DNA encoding library contains 12696 DNA encoding sequences. After sequencing, the Illumina adaptors around the DNA coding sequences were trimmed by CLC genomics workbench version 12 (Qiagen). The left DNA coding sequences were 30 bp in length corresponding to the three DNA sequences of building blocks in 3 rounds of “split-pool” iterations. For each sample, the DNA coding sequences were mapped to the reference DNA encoding compound library. No mismatch was allowed in the mapping. The coding sequences were counted for all the compounds across different samples. The total read-counts of all the compounds in a given sample were calculated. The read-counts for each individual compound were divided by the total counts, multiplied with a constant of 100000.
as §2
The fold changes of each compound in the after-selection library comparing to the reference library were calculated. For example, if SampleA and Reference library were compared, for the fold change of CompoundM was calculated as:
as §3, §4
Two target proteins with different cellular locations and biophysical properties were used in nDEL screens. […] The known functional binders for these targets were included in nDEL as internal positive controls, e.g., oridonin for HSP70 and derivatives of olaparib (F001, F002, F003 and F006) for PARP-1.

Counter-ions that a name gives are not always drawn.

We go through 32 compounds from patent US20220017471A1, “FUNCTIONALITY INDEPENDENT LABELING OF ORGANIC COMPOUNDS” (Shanghai Tech University, priority 2018, published 2022).

As for `O=c1ccc2ccc(O)cc2o1` [7-Hydroxycoumarin], the “Enrichment Fold, HSP70 binder selection” value in assay [1] was found to be 4.2.

On to `Oc1cc(O)c2c(c1)O[C@H](c1ccc(O)c(O)c1)[C@@H](O)C2` [(+) Catechin], for which the “Enrichment Fold, HSP70 binder selection” value in assay [1] stood at 2.7.

For `O=C(O[C@@H]1Cc2c(O)cc(O)cc2O[C@@H]1c1ccc(O)c(O)c1)c1cc(O)c(O)c(O)c1` [(−)-Epicatechin gallate, (−)- Epicatechingallate], the “Enrichment Fold, HSP70 binder selection” value in assay [1] is on record as 5.0. The “Fold Change, enrichment folds for PARP-1 binder selection” value in assay [2] stood at 2.81.

Take `O=C1c2ccccc2C(=O)c2c1ccc(O)c2O` [Alizarin]: the “Enrichment Fold, HSP70 binder selection” value in assay [1] amounted to 4.3. Moreover, the “Fold Change, enrichment folds for PARP-1 binder selection” value in assay [2] was determined as 2.02.

With `C[C@H]1[C@H](OC(=O)CCC(=O)O)O[C@@H]2O[C@@]3(C)CC[C@H]4[C@H](C)CC[C@@H]1[C@@]24OO3` [Artesunate], in assay [1], the “Enrichment Fold, HSP70 binder selection” value worked out at 2.4.

As for `O=c1cc(-c2ccccc2)oc2cc(O)c(O)c(O)c12` [Baicalein], the “Enrichment Fold, HSP70 binder selection” value in assay [1] is recorded as 3.6.

As for `COc1c(O)cc2c(c1O)[C@@H]1O[C@H](CO)[C@@H](O)[C@H](O)[C@H]1OC2=O` [Bengenin], the “Enrichment Fold, HSP70 binder selection” value in assay [1] came out at 3.6.

Consider `c1ccc(CNc2ncnc3nc[nH]c23)cc1` [Benzyladenine], for which the “Enrichment Fold, HSP70 binder selection” value in assay [1] is recorded as 3.6.

Take `COc1ccc(-c2coc3cc(O)cc(O)c3c2=O)cc1` [Biochanin A]: in assay [1], the “Enrichment Fold, HSP70 binder selection” value was found to be 3.7.

Consider `Cc1c(F)cccc1NC(=O)Nc1ccc(Cl)c(S(=O)(=O)[C@H]2CCCNC2)c1O` [Danirixin], for which the “Enrichment Fold, HSP70 binder selection” value in assay [1] is reported as 2.9.

For `O=c1ccc2ccc(O)c(O)c2o1` [Daphnetin], the “Enrichment Fold, HSP70 binder selection” value in assay [1] worked out at 3.9. The “Fold Change, enrichment folds for PARP-1 binder selection” value in assay [2] is listed as 2.17.

`Oc1cc(O)c2c(c1)O[C@H](c1cc(O)c(O)c(O)c1)[C@H](O)C2` [Epigallocatechin, epigallocatechin]: in assay [1], the “Enrichment Fold, HSP70 binder selection” value stood at 4.3. Moreover, in assay [2], the “Fold Change, enrichment folds for PARP-1 binder selection” value was determined as 2.53.

On to `O=c1ccc2cc(O)c(O)cc2o1` [Esculetin], for which the “Enrichment Fold, HSP70 binder selection” value in assay [1] was found to be 4.1.

Regarding `COc1cc2ccc(=O)oc2c(O)c1O` [Fraxetin], the “Enrichment Fold, HSP70 binder selection” value in assay [1] was determined as 3.3. The “Fold Change, enrichment folds for PARP-1 binder selection” value in assay [2] is 2.01.

As to `COc1cc2c(cc1O)CC[n+]1cc3c(OC)c(OC)ccc3cc1-2` [Jatrorrhizine hydrochloride], the “Enrichment Fold, HSP70 binder selection” value in assay [1] worked out at 4.5. The “Fold Change, enrichment folds for PARP-1 binder selection” value in assay [2] worked out at 2.23.

In the case of `COc1cc2c(cc1O)CC[n+]1cc3c(OC)c(OC)ccc3cc1-2` [Jatrorrhizine], the “Enrichment Fold, HSP70 binder selection” value in assay [1] is given as 3.7. Moreover, the “Fold Change, enrichment folds for PARP-1 binder selection” value in assay [2] was 2.04.

Take `c1coc(CNc2ncnc3[nH]cnc23)c1` [Kinetin]: the “Enrichment Fold, HSP70 binder selection” value in assay [1] came out at 2.8.

Consider `O=C1C[C@@H](c2ccc(O)cc2)Oc2cc(O)ccc21` [Liquiritigenin], for which the “Enrichment Fold, HSP70 binder selection” value in assay [1] came out at 2.7.

`O=C1C[C@@H](c2ccc(O[C@@H]3O[C@H](CO)[C@@H](O)[C@H](O)[C@H]3O)cc2)Oc2cc(O)ccc21` [Liquiritin]: the “Enrichment Fold, HSP70 binder selection” value in assay [1] is 3.9. Also, the “Fold Change, enrichment folds for PARP-1 binder selection” value in assay [2] came to 2.66.

With `COC(=O)c1ccc(O)c(O)c1` [Methyl protocatechuate], in assay [1], the “Enrichment Fold, HSP70 binder selection” value is recorded as 3.6.

On to `C[C@@H]1O[C@@H](O[C@H]2[C@H](Oc3cc(O)c4c(c3)O[C@H](c3ccc(O)cc3)CC4=O)O[C@H](CO)[C@@H](O)[C@@H]2O)[C@H](O)[C@H](O)[C@H]1O` [Naringin], for which the “Enrichment Fold, HSP70 binder selection” value in assay [1] stood at 4.5. In assay [2] (hit selection, FIG. 20(b), FIG. 21), the “Selected among enriched chemicals in PARP-1 nDEL screening” value is on record as “selected”. Moreover, in assay [2], the “Fold Change, enrichment folds for PARP-1 binder selection” value is 2.17.

With `COC(=O)Nc1nc2ccc(C(=O)c3cccs3)cc2[nH]1` [Nocodazole, reference compound], the “Enrichment Fold, HSP70 binder selection” value in assay [1] turned out to be 3.9. In addition, in assay [2], the “Fold Change, enrichment folds for PARP-1 binder selection” value was found to be 2.06.

For `CC(=O)c1c(O)cc(O)cc1O` [Phloracetophenone], in assay [1], the “Enrichment Fold, HSP70 binder selection” value came to 3.5.

As for `O=C(CCc1ccc(O)cc1)c1c(O)cc(O)cc1O[C@@H]1O[C@H](CO)[C@@H](O)[C@H](O)[C@H]1O` [Phlorizin], in assay [1], the “Enrichment Fold, HSP70 binder selection” value amounted to 3.8.

In the case of `COc1cc(C(=O)O[C@H]2[C@@H]3C=CO[C@@H](O[C@@H]4O[C@H](CO)[C@@H](O)[C@H](O)[C@H]4O)[C@@H]3[C@@]3(CO)O[C@@H]23)ccc1O` [Picroside II], in assay [1], the “Enrichment Fold, HSP70 binder selection” value worked out at 4.0.

Regarding `O=C(O)c1ccc(O)c(O)c1` [Protocatechuic acid], in assay [1], the “Enrichment Fold, HSP70 binder selection” value came out at 3.8.

Take `Cc1ncc(CO)c(CO)c1O` [Pyridoxine, reference compound]: in assay [1], the “Enrichment Fold, HSP70 binder selection” value came out at 3.4.

In the case of `Cn1c(=O)c2c(ncn2CC(=O)O)n(C)c1=O` [Theophylline-7-acetic acid, Theophylline-7-acetic acid, reference compound], the “Enrichment Fold, HSP70 binder selection” value in assay [1] is on record as 3.3.

Turning to `O=c1c(O)c(-c2ccc(O)c(O)c2)oc2cc(O)cc(O)c12` [quercetin, Quercetin], the “Enrichment Fold, HSP70 binder selection” value in assay [1] is reported as 2.8.

As for `O=c1c2ccccc2nc2n1CCc1c-2[nH]c2ccccc12` [rutaecarpin], the “Enrichment Fold, HSP70 binder selection” value in assay [1] came to 3.2.

For `COC1=C[C@@H]2[C@@H]3Cc4ccc(OC)c(O)c4[C@]2(CCN3C)CC1=O` [sinomenine], the “Enrichment Fold, HSP70 binder selection” value in assay [1] is recorded as 3.2.

On to (+)-Catechin Hydrate, for which the “Enrichment Fold, HSP70 binder selection” value in assay [1] amounted to 3.8.
